Reference: patent publication US20200054581A1, “APPLICATION OF TRPM7 INHIBITORS TO TREAT SLEEP APNEA AND HYPERTENSION IN OBESITY” (THE JOHNS HOPKINS UNIVERSITY, priority 2017, published 2020)
“Also recorded” adds a separate entry of the source. Like-named read-outs stand apart in the source and are kept apart here.

Columns and labels:
[1] = tested on: isolated CB-CSN preparations; assay: hypoxia-induced CSN activity in isolated superfused CB-CSN preparation; set-up: species or system C57B1/6J (WT) mice; conditions: for leptin-enhanced hypoxia-induced CSN activity: effect of nonspecific TRP channel antagonist; for hypoxia-induced CSN activity: effect of leptin
Source text: SKF and 2-APB data were pooled, *p<0.05.
Leptin and carotid body function CBs are major peripheral O2 sensors, which initiate chemosensory inputs in the CSN to the respiratory centers via nucleus solitarius to evoke acute hyperventilation, and the rostral ventrolateral medulla presympathetic neurons to stimulate SNS activity. CB plays critical roles in the development of hypertension during chronic intermittent hypoxia (CIH); and the sympatho-excitation and destabilization of breathing during heart failure. However, the connection between CB and the obesity-associated hypertension and respiratory instability has not been clearly established. […] The effect of leptin on isolated CB-CSN preparations from C57B1/6J (WT) mice was studied.

[2] = biological target: TRPM7 (Homo sapiens, UniProt Q96QT4); conditions: cited from earlier work
[3] = tested on: rat glomus cells; conditions: cited from earlier work
[4] = tested on: TRPM7; assay: Trpm7 mRNA level by qPCR in PC12^LEPRb cells; type: cell-based; conditions: 48 hr exposure
Experimental: (§1) FIG. 8A-8C illustrates exposure of leptin to Leprb-expressing PC12^LEPRb cells increased Trpm7 promoter activity and gene transcription. (A) PC12^LEPRb cells transfected with either pEZX-Luc-vector (empty, no insert) or pEZX-Luc-Trpm7 (promoter insert) were exposed to 1 ng/ml leptin for 48 hr prior to measurement of luciferase activity. B and C) Gene expression and promoter methylation of Trpm7 in cells exposed to leptin or 5-aza-dC for 48 hr. Trpm7 mRNA level was quantitated by qPCR. Methylation status of CpG sites in Trpm7 promoter were determined by bisulfite sequencing. A total of 40 CpG sites per clone and 6 individual clones for each treatment group were sequenced. Each row of circles represented an individual clone. Putative TF binding sites such as STAT3 and NFkB were shown in scale in Trpm7 promoter. TSS: transcription start site. Boxed regions highlight the CpG sites showing differential methylation in cells exposed to leptin or 5-aza-dC. (p<0.05). Values were mean±SD.
(§2) Leptin can regulate gene transcription by binding to ObRb to activate Janus kinase 2/signal transducers and activator of transcription 3 (JAK2/STAT3) as well as ERK1/2 and PI3K pathways (FIG. 7), which are known to regulate a wide variety of genes. To examine the possible regulation of Trpm7 transcription by leptin, we searched the Trpm7 promoter sequence for potential binding sites for transcription factors (TFs). […]

[5] = biological target: T1, TRPM7 (Rattus norvegicus, UniProt Q925B3); assay: non-selective cation (TRPM7) current, amphotericin-B perforated-patch recording in PC12^LEPRb cells; type: cell-based; conditions: for leptin-enhanced non-selective cation current / naltriben-induced increase of the current: effect of TRPM7 antagonist
T1 construct: PC12 cells are oxygen-sensitive, express high level of TRPM7; endogenous in cells; host or cells: PC12^LEPRb cells (PC12 transfected with leptin receptor LEPRb; TRPM7 itself not transfected)
Source text: FIG. 5A-5C illustrates leptin enhances TRPM7 current in leptin receptor expressing PC12 cells.
Leptin can regulate TRPM7 channel activity. Leptin exerts its action by binding to the long form of leptin receptors (LEPRb, ObRb), which is the only functional isoform of leptin receptor. The possible effect of leptin on TRPM7 channel activity was investigated, by using LEPRb expressing adrenal pheochromocytoma PC12 (PC12^LEPRb) cells as the cell model, because PC12 cells are oxygen-sensitive, express high level of TRPM7 and have been used widely in the studies of chemoreception. Non-selective cation current was recorded using amphotericin-B perforated-patch technique in the absence of extracellular and intracellular K^+ (replaced by Cs^+) and Mg^2+, after VDCC was blocked by nifedipine and Cl^− currents were inhibited by DIDS and niflumic acid. Voltage-ramp of −100 to +100 mV elicited an outward rectifying current that resembled TRPM7 current reported in other cell types. […] The leptin-induced current was not observed in PC12 cells transfected with a control plasmid (data not shown). The present invention provides the first evidence showing activation of leptin receptor is capable of enhancing TRPM7 activity, and it supports our hypothesis that leptin may enhance CB activity through regulation of TRPM7 activity.
Obesity is a leading cause of high cardiovascular morbidity and mortality. It is characterized by an increased leptin level, which has been implicated in increased sympathetic activity and the pathogenesis of hypertension. However, the mechanism by which leptin enhances sympathetic activity is unclear. Leptin receptors (LEPRs) are expressed in the carotid bodies, the most important arterial chemoreceptors for the cardiovascular-respiratory chemoreflex. Since leptin is known to regulate many different ion channels, we hypothesize that leptin may exert its effects through modulation of TRPM7 channel activity. To test this hypothesis, the inventors used LEPR (LEPRb) expressing pheochromocytoma (PC12^LEPRb) cells, which expresses high levels of TRPM7 channels, as the cell model. Non-selective cation channels were recorded under amphotericin-B perforated-patch techniques with K^+ replaced by Cs^+ in the presence of voltage-gated Ca^2+ channel and Cl^− channel blockers. Voltage-ramp from −100 to 100 mV activated an outward-rectifying current. Removal of extracellular divalent ions enhanced the inward current, consistent with the inward divalent ion selectivity of TRPM7.

[6] = tested on: C57BL/6J mice; assay: telemetric blood pressure in mice, leptin-induced hypertension; type: in vivo, mouse
Experimental: Leptin signals in the CB to increase blood pressure. Male C57BL/6J mice, n=6 housed in a 12 hr light/dark cycle underwent telemetry implantation (Data Sciences) in the left femoral artery as we have described. […] After 4 day recovery mice were treated with vehicle (saline) regaining weight. On Day 17th of the protocol, carotid sinus nerve dissection (CSND, CB denervation) was performed bilaterally. After 1 week recovery, leptin and vehicle infusions were repeated. […] In contrast, CB denervation greatly modified cardiovascular effects of leptin. Indeed, in mice with intact carotid bodies leptin increased mean arterial pressure by 13 mm Hg during the day and by 16 mm Hg at night (FIG. 16A). […] Thus, leptin increases blood pressure acting in the CB.
FTY720 abolishes leptin-induced hypertension. There are multiple TRPM7 inhibitors available. We used a potent TRPM7 inhibitor FTY720 for several reasons. FTY720 is a novel immunomodulator and a structural homolog of shingosine-1-phosphate (S1P) blocking S1P effects in many diseases, including atherosclerosis, cancer, asthma, autoimmune diseases and acute lung injury. First, FTY270 has already been approved by FDA for multiple sclerosis (fingolimod). […] The experiment was performed in lean (24-26 g) C57BL/6J mice (n=5). Telemetry for continuous blood pressure recording was inserted. After 5 day recovery, mice were treated with leptin for 3 days as above. The pump was removed. After 7 day recovery, leptin was reinfused as above, but FTY720 was infused SC simultaneously at 0.1 mg/day (approximately 3 mg/kg/day).
Obesity leads to cardiovascular morbidity and mortality acting via multiple mechanisms including hypertension and obstructive sleep apnea. High levels of leptin have been associated with both conditions. The carotid bodies (CB) express leptin receptor (LepR), but the mechanism of leptin in CB is unknown. […] (CSND). In mice with intact CB, leptin increased mean arterial pressure by 13 mm Hg during the day and by 16 mm Hg at night (p=0.003 for the effect of leptin). […] Leptin receptor expression in carotid bodies of leptin receptor deficient db/db mice led to the same effect (n=6, p<0.05). […] Finally, the inventors tested the effect of a Trpm7 inhibitor on leptin-induced hypertension. The inventors performed blood pressure monitoring in male C57BL/6J mice (n=5˜9) at baseline, during leptin infusion with or without Trpm7 inhibitor, FTY720 (3 mg/kg/day, sc, n=5) for 24 hrs. […] The inventors conclude that leptin increases blood pressure acting in the CB via the Trpm7 channel.

[7] = mice; cited from earlier work
[8] = humans; cited from earlier work
[9] = tested on: C57BL/6J mice; assay: minute ventilation and hypoxic ventilatory response (HVR) in awake lean mice; type: in vivo, mouse
Experimental: (§3) Leptin increases the HVR in lean mice. Minute ventilation (VE) was measured at normoxic conditions and during 3-5 min exposure to 10% O2 in awake lean male C57BL/6J mice, n=4, at baseline and during leptin administration (30 μg/day for 3 days via a subcutaneous osmotic pump). Serum leptin levels increased from 0.8±0.2 ng/ml to 33.2±1.9 ng/ml, which was similar to previously reported in DIO mice and obese humans, and then returned to the baseline. Mice decreased food intake and lost weight. Leptin increased VE at baseline as a result of an increase in the metabolic rate (FIG. 10). Leptin increased the HVR by greater than 60%.
Trpm7 inhibition prevents effects of leptin on the HVR. […] Male C57BL/6J mice (n=2) were treated with leptin for 3 days as described above. After 5 day recovery, leptin and a TRPM7 blocker NS8593 (10 mg/kg/day) were administered subcutaneously via an osmotic pump for 3 days. Mice reduced food intake and lost weight with leptin, regardless of the TRPM7 inhibitor.

[10] = tested on: Trpm7 promoter; assay: Trpm7 promoter luciferase reporter in PC12^LEPRb cells; type: cell-based; conditions: leptin 1 ng/ml, 48 hr
Experimental: as §1, §2

[11] = tested on: Trpm7 promoter; assay: Trpm7 promoter methylation by bisulfite sequencing in PC12^LEPRb cells; type: cell-based; conditions: leptin exposure
Experimental: as §1, §2

[12] = serum leptin levels during leptin administration; type: in vivo, mouse; conditions: leptin 30 μg/day for 3 days, subcutaneous osmotic pump
Experimental: as §3

[13] = NS8593 10 mg/kg/day subcutaneously via osmotic pump for 3 days with leptin, 10 mg/kg/day
[14] = leptin infusion for 3 days, intact carotid bodies

Sequence of TRPM7 (Homo sapiens, UniProt Q96QT4) (Q96QT4 whole entry, species assumed): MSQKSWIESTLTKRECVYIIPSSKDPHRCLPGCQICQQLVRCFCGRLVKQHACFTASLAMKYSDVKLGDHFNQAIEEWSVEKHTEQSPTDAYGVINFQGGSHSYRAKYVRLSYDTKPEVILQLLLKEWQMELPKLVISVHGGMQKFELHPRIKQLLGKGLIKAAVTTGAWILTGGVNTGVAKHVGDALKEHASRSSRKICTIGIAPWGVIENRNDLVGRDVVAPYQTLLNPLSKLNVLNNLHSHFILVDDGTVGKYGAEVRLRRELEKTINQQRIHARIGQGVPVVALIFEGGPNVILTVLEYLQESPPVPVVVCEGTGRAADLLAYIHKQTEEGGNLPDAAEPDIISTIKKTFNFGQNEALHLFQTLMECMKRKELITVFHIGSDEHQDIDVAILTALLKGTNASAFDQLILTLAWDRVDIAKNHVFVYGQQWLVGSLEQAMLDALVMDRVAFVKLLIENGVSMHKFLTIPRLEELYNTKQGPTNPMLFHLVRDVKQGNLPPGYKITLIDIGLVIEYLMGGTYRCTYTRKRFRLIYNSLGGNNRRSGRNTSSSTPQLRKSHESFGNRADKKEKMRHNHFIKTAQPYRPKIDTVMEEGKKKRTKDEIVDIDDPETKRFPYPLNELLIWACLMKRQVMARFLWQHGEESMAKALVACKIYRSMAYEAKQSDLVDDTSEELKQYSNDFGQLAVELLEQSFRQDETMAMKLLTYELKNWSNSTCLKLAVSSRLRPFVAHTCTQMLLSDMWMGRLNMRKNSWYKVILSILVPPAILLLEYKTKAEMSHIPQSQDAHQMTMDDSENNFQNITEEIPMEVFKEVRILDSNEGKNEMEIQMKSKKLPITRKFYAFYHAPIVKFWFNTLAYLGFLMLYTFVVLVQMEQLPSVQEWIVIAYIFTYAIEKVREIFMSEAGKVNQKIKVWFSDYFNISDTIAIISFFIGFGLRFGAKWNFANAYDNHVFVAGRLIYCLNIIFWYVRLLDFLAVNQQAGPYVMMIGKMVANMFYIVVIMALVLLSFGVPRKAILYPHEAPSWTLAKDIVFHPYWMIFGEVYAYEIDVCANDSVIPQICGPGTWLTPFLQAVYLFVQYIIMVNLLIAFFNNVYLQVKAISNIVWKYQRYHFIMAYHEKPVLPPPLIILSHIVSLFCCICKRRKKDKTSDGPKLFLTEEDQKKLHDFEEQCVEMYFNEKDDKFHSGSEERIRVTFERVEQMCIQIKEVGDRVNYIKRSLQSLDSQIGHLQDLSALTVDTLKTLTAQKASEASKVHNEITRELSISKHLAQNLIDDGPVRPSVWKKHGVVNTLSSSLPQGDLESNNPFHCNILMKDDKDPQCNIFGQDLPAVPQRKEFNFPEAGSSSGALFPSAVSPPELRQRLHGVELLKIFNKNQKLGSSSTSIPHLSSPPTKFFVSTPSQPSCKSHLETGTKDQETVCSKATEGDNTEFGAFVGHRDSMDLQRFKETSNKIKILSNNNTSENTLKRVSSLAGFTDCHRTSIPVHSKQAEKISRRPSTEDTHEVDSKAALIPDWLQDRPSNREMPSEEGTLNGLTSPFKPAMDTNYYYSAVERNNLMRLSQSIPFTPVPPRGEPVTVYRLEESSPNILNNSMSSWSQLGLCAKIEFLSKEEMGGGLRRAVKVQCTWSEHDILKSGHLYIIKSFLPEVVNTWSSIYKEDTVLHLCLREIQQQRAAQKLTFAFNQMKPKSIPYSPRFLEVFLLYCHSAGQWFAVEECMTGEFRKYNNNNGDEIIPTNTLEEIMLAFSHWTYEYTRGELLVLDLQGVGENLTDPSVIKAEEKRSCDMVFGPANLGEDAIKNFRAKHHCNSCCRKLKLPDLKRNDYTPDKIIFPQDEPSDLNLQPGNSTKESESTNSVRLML
T1 sequence (Q925B3 whole entry): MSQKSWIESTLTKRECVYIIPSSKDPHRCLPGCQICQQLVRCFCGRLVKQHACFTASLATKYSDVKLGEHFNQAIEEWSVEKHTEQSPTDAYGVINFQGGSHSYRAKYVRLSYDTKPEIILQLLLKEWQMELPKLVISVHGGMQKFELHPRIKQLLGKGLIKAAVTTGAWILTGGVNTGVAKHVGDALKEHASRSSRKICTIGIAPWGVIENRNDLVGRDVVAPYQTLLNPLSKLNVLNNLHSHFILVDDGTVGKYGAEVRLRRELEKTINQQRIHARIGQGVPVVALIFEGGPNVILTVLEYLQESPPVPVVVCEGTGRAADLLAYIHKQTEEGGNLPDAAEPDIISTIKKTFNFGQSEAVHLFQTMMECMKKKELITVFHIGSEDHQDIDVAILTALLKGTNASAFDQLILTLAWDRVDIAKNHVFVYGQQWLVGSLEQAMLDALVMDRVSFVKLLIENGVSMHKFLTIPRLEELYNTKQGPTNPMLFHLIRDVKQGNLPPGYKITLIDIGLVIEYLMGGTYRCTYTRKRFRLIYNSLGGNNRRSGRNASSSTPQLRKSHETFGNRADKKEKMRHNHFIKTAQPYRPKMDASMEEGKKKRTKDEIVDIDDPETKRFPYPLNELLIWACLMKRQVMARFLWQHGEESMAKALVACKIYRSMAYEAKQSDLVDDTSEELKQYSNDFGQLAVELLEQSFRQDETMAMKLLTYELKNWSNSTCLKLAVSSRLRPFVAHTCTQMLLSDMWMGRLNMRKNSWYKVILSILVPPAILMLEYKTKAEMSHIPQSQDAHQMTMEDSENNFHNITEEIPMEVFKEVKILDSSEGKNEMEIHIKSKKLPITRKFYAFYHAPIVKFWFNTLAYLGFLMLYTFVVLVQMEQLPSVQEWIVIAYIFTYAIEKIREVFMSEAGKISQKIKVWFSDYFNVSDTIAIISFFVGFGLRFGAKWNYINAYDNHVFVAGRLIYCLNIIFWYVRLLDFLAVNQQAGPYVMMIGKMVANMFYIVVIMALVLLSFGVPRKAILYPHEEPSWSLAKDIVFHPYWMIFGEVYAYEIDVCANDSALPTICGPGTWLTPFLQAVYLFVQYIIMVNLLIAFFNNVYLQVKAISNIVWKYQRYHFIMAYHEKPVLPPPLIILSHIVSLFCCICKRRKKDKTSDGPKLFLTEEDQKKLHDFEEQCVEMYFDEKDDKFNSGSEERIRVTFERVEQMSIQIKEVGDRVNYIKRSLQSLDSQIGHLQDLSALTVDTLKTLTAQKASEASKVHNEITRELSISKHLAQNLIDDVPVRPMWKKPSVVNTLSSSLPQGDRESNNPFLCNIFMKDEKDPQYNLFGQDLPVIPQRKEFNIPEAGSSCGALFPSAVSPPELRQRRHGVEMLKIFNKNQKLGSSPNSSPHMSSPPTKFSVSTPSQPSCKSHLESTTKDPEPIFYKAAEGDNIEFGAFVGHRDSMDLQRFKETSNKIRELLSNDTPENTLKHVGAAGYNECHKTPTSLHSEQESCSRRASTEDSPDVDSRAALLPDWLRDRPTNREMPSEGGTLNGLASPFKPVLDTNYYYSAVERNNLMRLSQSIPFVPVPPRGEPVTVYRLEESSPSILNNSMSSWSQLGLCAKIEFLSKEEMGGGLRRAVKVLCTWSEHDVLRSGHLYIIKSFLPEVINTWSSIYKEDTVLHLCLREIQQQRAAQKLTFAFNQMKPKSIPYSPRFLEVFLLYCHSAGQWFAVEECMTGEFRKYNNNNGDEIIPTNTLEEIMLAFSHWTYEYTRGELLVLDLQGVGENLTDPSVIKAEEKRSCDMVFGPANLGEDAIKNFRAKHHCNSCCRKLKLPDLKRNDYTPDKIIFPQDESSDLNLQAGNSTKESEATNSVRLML

Molecule: NCCOB(c1ccccc1)c1ccccc1 [2-APB, 2-aminoethoxydiphenylborane]
- leptin-enhanced hypoxia-induced CSN activity [1]: blocked
- TRPM7 channel activity [2]: inhibited
- elevation of [Ca2+]i induced by hypoxia, NaCN and FCCP [3]: inhibited

Molecule: Nc1ncn([C@H]2C[C@H](O)[C@@H](CO)O2)c(=O)n1 [5-aza-dC]
- Trpm7 mRNA level [4]: increased

Molecule: CCCCCCCCc1ccc(CCC(N)(CO)CO)cc1 [FTY720, 2-amino-2-[2-(4-octylphenyl)ethyl]propane-1,3-diol]
- leptin-enhanced non-selective cation current [5]: significantly inhibited; also recorded: completely blocked
- naltriben-induced increase of the current [5]: abolished
- leptin-enhanced non-selective cation current ([5]; listed as FTY120): almost completely abolished
- leptin-induced hypertension ([6]; FTY720 SC 0.1 mg/day (approximately 3 mg/kg/day) with leptin): completely abolished; also recorded: prevented
- half-life [7]: 19 to 28 h
- half-life [8]: 170 h
- TRPM7 channel activity [2]: inhibited

Molecule: Cl.c1ccc2c(c1)CCC[C@H]2Nc1nc2ccccc2[nH]1 [NS8593, N-[(1R)-1,2,3,4-Tetrahydro-1-naphthalenyl]-1H-Benzimidazol-2-aminehydrochloride]
- leptin-enhanced non-selective cation current [5]: completely blocked; also recorded: almost completely abolished
- naltriben-induced increase of the current [5]: abolished
- basal ventilation ([9]; NS8593 10 mg/kg/day subcutaneously via osmotic pump for 3 days with leptin): without any effect
- leptin-induced hypoxic hyperventilation (VE during acute hypoxia) [9, 13]: abolished; also recorded: prevented
- leptin-induced increase in the HVR [9, 13]: abolished; also recorded: abolishing
- TRPM7 channel activity [2]: inhibited

Molecule: COc1ccc(CCCOC(Cn2ccnc2)c2ccc(OC)cc2)cc1 (centres unmarked) [SKF96365]
- leptin-enhanced hypoxia-induced CSN activity [1]: dampened; also recorded: blocked

Molecule: Cc1ccc(C(C)C)cc1O [carvacrol]
- TRPM7 channel activity [2]: inhibited

Molecule: Oc1ccc2c3c1O[C@H]1c4oc5ccccc5c4C[C@@]4(O)[C@@H](C2)N(CC2CC2)CC[C@]314 [naltriben]
- outward rectifying non-selective cation (TRPM7) current ([5]; effect of TRPM7 agonist (50 μM elsewhere in the source), voltage-ramp −100 to +100 mV): significant augmentation; also recorded: significant increase
- TRPM7 channel activity [2]: activated

Molecule: CCCCCCCCCCCCC/C=C/[C@@H](O)[C@@H](N)CO [sphingosine]
- TRPM7 channel activity [2]: inhibited

Molecule: leptin: an adipocyte-produced hormone
- hypoxia-induced CSN activity [1]: significantly augmented
- hypoxia-induced CSN activity ([1]; listed as Leptin): augments
- outward rectifying non-selective cation (TRPM7) current ([5]; effect of leptin (10-100 ng/ml elsewhere in the source)): enhances; also recorded: concentration-dependent increase
- Trpm7 promoter luciferase activity [10]: significantly increased
- Trpm7 mRNA level [4]: increased; also recorded: significant increase
- methylation status of Trpm7 promoter [11]: CpG site-specific demethylation
- body weight ([9]; leptin 30 μg/day for 3 days): lost weight
- food intake ([9]; leptin 30 μg/day for 3 days): decreased
- increase of the HVR ([9]; leptin 30 μg/day for 3 days, subcutaneous osmotic pump, 10% O2): greater than 60%
- hypoxic ventilatory response (HVR), in words ([9]; leptin infusion): increased
- minute ventilation (VE) at baseline ([9]; leptin infusion, normoxic): increased
- serum leptin levels [12]: 33.2 ± 1.9 ng/mL
- heart rate ([6]; leptin): increases
- mean arterial pressure, in words ([6]; leptin): increases
- increase of mean arterial pressure at night [6, 14]: 16 mm Hg
- increase of mean arterial pressure during the day [6, 14]: 13 mm Hg
